Test results: ChEMBL document CHEMBL4732043, “The discovery of novel indazole derivatives as tubulin colchicine site binding agents that displayed potent antitumor activity both in vitro and in vivo” (Eur J Med Chem, 2020)

How the values were obtained:
HCT-116 [1] = assay: Induction of apoptosis in human HCT-116 cells assessed as viable cells at 40 nM after 24 hrs by annexinV and 7-ADD staining based flow cytometry (reference value: 96.7%); type: functional; settings: read-out: Activity
HCT-116 [2] = assay: Induction of apoptosis in human HCT-116 cells assessed as early apoptotic cells at 40 nM after 24 hrs by annexinV and 7-ADD staining based flow cytometry (reference value: 0.9%); type: functional
A549 = assay: Antiproliferative activity against human A549 cells assessed as cell viability after 72 hrs by MTT assay; type: functional
[3] = Cytotoxicity against HUVEC assessed as cell viability after 72 hrs by MTT assay; type: cell-based; settings: human, HUVEC cells
[4] = Toxicity in nude mouse xenografted with human HCT-116 cells assessed as change in body weight at 12.5 mg/kg, po for 21 days (reference value: 2.2%); type: organism-based; settings: in vivo, 504 h, time 21 day
HCT-116 [5] = assay: Antiproliferative activity against human HCT-116 cells assessed as cell viability after 72 hrs by MTT assay; type: functional
HCT-116 [6] = assay: Induction of apoptosis in human HCT-116 cells assessed as late apoptotic cells at 10 nM after 24 hrs by annexinV and 7-ADD staining based flow cytometry (reference value: 1.5%); type: functional
HCT-116 [7] = assay: Induction of apoptosis in human HCT-116 cells assessed as viable cells at 10 nM after 24 hrs by annexinV and 7-ADD staining based flow cytometry (reference value: 96.7%); type: functional; settings: read-out: Activity
[8] = Toxicity in nude mouse xenografted with human HCT-116 cells assessed as change in body weight at 25 mg/kg, po for 21 days (reference value: 2.2%); type: organism-based; settings: in vivo, 504 h, time 21 day
HT-29 = assay: Antiproliferative activity against human HT-29 cells assessed as cell viability after 72 hrs by MTT assay; type: functional
HCT-116 [9] = assay: Induction of apoptosis in human HCT-116 cells assessed as viable cells at 20 nM after 24 hrs by annexinV and 7-ADD staining based flow cytometry (reference value: 96.7%); type: functional; settings: read-out: Activity
HCT-116 [10] = assay: Induction of apoptosis in human HCT-116 cells assessed as necrotic cells at 20 nM after 24 hrs by annexinV and 7-ADD staining based flow cytometry (reference value: 0.9%); type: functional
HCT-116 [11] = assay: Induction of apoptosis in human HCT-116 cells assessed as necrotic cells at 40 nM after 24 hrs by annexinV and 7-ADD staining based flow cytometry (reference value: 0.9%); type: functional
Tubulin (Homo sapiens) [12] = target: T1, Tubulin (Homo sapiens) (UniProt P68371+Q9H4B7+P0DPH7+P68366+Q13509+Q71U36+P04350+Q3ZCM7+P07437+P68363+Q9BQE3+Q6PEY2+Q13885+Q9BVA1+Q9BUF5); assay: Inhibition of tubulin polymerization in human HCT-116 cells assessed as complete microtubule depolymerization at 40 nM after 24 hrs by immunofluorescence analysis; type: cell-based
HCT-116 [13] = assay: Induction of cell cycle arrest in human HCT-116 cells assessed as accumulation of cells at S phase at 20 nM after 24 hrs by flow cytometry (reference value: 43.12%); type: functional
HCT-116 [14] = assay: Induction of apoptosis in human HCT-116 cells assessed as late apoptotic cells at 20 nM after 24 hrs by annexinV and 7-ADD staining based flow cytometry (reference value: 1.5%); type: functional
1-87 tumor cell line = assay: (§1) Inhibition of porcine brain tubulin polymerization by fluorescence based assay; settings: Sus scrofa domesticus
[15] = as §1; type: cell-based, Sus scrofa domesticus, 1-87 tumor cell line
HCT-116 [16] = assay: Induction of cell cycle arrest in human HCT-116 cells assessed as accumulation of cells at G1 phase at 20 nM after 24 hrs by flow cytometry (reference value: 40.5%); type: functional
HCT-116 [17] = assay: Induction of apoptosis in human HCT-116 cells assessed as early apoptotic cells at 10 nM after 24 hrs by annexinV and 7-ADD staining based flow cytometry (reference value: 0.9%); type: functional
HCT-116 [18] = assay: Antitumor activity against human HCT-116 cells xenografted in nude mouse assessed as inhibition of tumor growth at 25 mg/kg, po for 21 days; type: functional; settings: HCT-116, po, 504 h, time 21 day, read-out: TGI
Tubulin (Homo sapiens) [19] = target: T1, Tubulin (Homo sapiens); assay: Inhibition of tubulin polymerization in human HCT-116 cells assessed as microtubule network polymerization after 24 hrs by immunofluorescence analysis; type: cell-based; settings: dose 20-40 nM
SW-620 = assay: Antiproliferative activity against human SW-620 cells assessed as cell viability after 72 hrs by MTT assay; type: functional
HCT-116 [20] = assay: Induction of cell cycle arrest in human HCT-116 cells assessed as accumulation of cells at G1 phase at 10 nM after 24 hrs by flow cytometry (reference value: 40.5%); type: functional
HCT-116 [21] = assay: Induction of cell cycle arrest in human HCT-116 cells assessed as accumulation of cells at G2/M phase at 20 nM after 24 hrs by flow cytometry (reference value: 16.35%); type: functional
HCT-116 [22] = assay: Antitumor activity against human HCT-116 cells xenografted in nude mouse assessed as inhibition of tumor growth at 12.5 mg/kg, po for 21 days; type: functional; settings: HCT-116, po, 504 h, time 21 day, read-out: TGI
HCT-116 [23] = assay: Induction of cell cycle arrest in human HCT-116 cells assessed as accumulation of cells at S phase at 10 nM after 24 hrs by flow cytometry (reference value: 43.12%); type: functional
HCT-116 [24] = assay: Induction of apoptosis in human HCT-116 cells assessed as late apoptotic cells at 40 nM after 24 hrs by annexinV and 7-ADD staining based flow cytometry (reference value: 1.5%); type: functional
HCT-116 [25] = assay: Induction of apoptosis in human HCT-116 cells assessed as early apoptotic cells at 20 nM after 24 hrs by annexinV and 7-ADD staining based flow cytometry (reference value: 0.9%); type: functional
Tubulin (Homo sapiens) [26] = target: T1, Tubulin (Homo sapiens); assay: Inhibition of tubulin polymerization in human HCT-116 cells assessed as microtubule spindle formation after 24 hrs by immunofluorescence analysis; type: cell-based; settings: dose 20-40 nM
[27] = target: Tubulin beta (Homo sapiens) (UniProt P68371+Q9H4B7+Q13509+P04350+Q3ZCM7+P07437+Q13885+Q9BVA1+Q9BUF5+A6NNZ2); assay: Inhibition of N,N'-Ethylenebis(iodoacetamide) binding to beta-tubulin in human HCT-116 cells assessed as reduction in EBI/beta-tubulin adduct formation preincubated for 2 hrs followed by EBI addition and measured after 1.5 hrs by Western blot analysis; type: cell-based; settings: dose 0.2-25 µM, time 3.5 hrs
HepG2 = assay: Antiproliferative activity against human HepG2 cells assessed as cell viability after 72 hrs by MTT assay; type: functional
HCT-116 [28] = assay: Induction of cell cycle arrest in human HCT-116 cells assessed as accumulation of cells at G2/M phase at 10 nM after 24 hrs by flow cytometry (reference value: 16.35%); type: functional
HCT-116 [29] = assay: Induction of apoptosis in human HCT-116 cells assessed as necrotic cells at 10 nM after 24 hrs by annexinV and 7-ADD staining based flow cytometry (reference value: 0.9%); type: functional

Question: Which results are given for COc1cc(Nc2n[nH]c3cc(C)ccc23)cc(OC)c1OC?
Answer: viability at 0.04 µM (HCT-116 [1]): 62.2%; Activity (HCT-116 [2]): 15.4%; GI50 (A549): 0.033 µM; GI50 at 72 h [3]: > 25 µM; Activity [4]: 2.7%; GI50 (HCT-116 [5]): 0.015 µM; Activity (HCT-116 [6]): 12.7%; viability at 0.01 µM (HCT-116 [7]): 79.9%; Activity [8]: 6.5%; GI50 (HT-29): 0.031 µM; viability at 0.02 µM (HCT-116 [9]): 75.4%; Activity (HCT-116 [10]): 2.1%; Activity (HCT-116 [11]): 1.5%; inhibition (Tubulin (Homo sapiens) [12]): 100%; Activity (HCT-116 [13]): 4.68%; Activity (HCT-116 [14]): 13.7%; inhibition (1-87 tumor cell line): Dose-dependent effect; IC50 [15]: 3.39 µM; Activity (HCT-116 [16]): 14.25%; Activity (HCT-116 [17]): 4.7%; inhibition in vivo at 25 mg/kg (HCT-116 [18]): 45.3%; inhibition (Tubulin (Homo sapiens) [19]): Dose-dependent effect; GI50 (SW-620): 0.008 µM; Activity (HCT-116 [20]): 34.54%; Activity (HCT-116 [21]): 81.07%; inhibition in vivo at 12.5 mg/kg (HCT-116 [22]): 27.4%; Activity (HCT-116 [23]): 36.46%; Activity (HCT-116 [24]): 20.9%; Activity (HCT-116 [25]): 8.9%; inhibition (Tubulin (Homo sapiens) [26]): Dose-dependent effect; inhibition [27]: Dose-dependent effect; GI50 (HepG2): 0.027 µM; Activity (HCT-116 [28]): 29%; Activity (HCT-116 [29]): 2.7%

Question: Which results are given for COc1ccc(Nc2n[nH]c3cc(OC)ccc23)cc1?
Answer: GI50 (A549): > 25 µM; GI50 (HCT-116 [5]): 24.8 µM; GI50 (HepG2): > 25 µM

Question: Which GI50 (A549) does the source give for Fc1ccc2c(Nc3ccc4c(c3)OCO4)n[nH]c2c1 here?
Answer: Its GI50 is greater than 25 µM.

Question: And the GI50 (HCT-116 [5])?
Answer: Its GI50 is greater than 25 µM.

Question: And the GI50 (HepG2)?
Answer: The GI50 was greater than 25 µM.

Question: Which results are given for COc1ccc(Nc2n[nH]c3cc(F)ccc23)cc1OC?
Answer: GI50 (A549): > 25 µM; GI50 (HCT-116 [5]): 16.7 µM; GI50 (HepG2): > 25 µM

Question: Which results are given for COc1ccc(Nc2n[nH]c3cc(F)ccc23)cc1?
Answer: GI50 (A549): > 25 µM; GI50 (HCT-116 [5]): > 25 µM; GI50 (HepG2): > 25 µM

Question: Which GI50 (A549) does the source give for COc1cc(Nc2n[nH]c3ccc(C)cc23)cc(OC)c1OC here?
Answer: Its GI50 is 1.1 µM.

Question: And the GI50 (HCT-116 [5])?
Answer: Its GI50 is 2.6 µM.

Question: And the GI50 (HepG2)?
Answer: The GI50 was 4 µM.

Question: What does the source list for COc1ccc2c(Nc3ccc(OC)c(OC)c3)n[nH]c2c1?
Answer: GI50 (A549): > 25 µM; GI50 (HCT-116 [5]): 14.6 µM; GI50 (HepG2): > 25 µM

Question: Which GI50 (A549) does the source give for Cc1ccc2[nH]nc(Nc3ccc4c(c3)OCO4)c2c1 here?
Answer: Its GI50 is greater than 25 µM.

Question: What about the GI50 (HCT-116 [5]) of the same molecule?
Answer: The GI50 was greater than 25 µM.

Question: And the GI50 (HepG2)?
Answer: Its GI50 is greater than 25 µM.

Question: Which results are given for COc1cc(Nc2n[nH]c3cc(C)ccc23)cc(OC)c1?
Answer: GI50 (A549): 1.1 µM; GI50 (HCT-116 [5]): 0.7 µM; GI50 (HepG2): 0.2 µM

Question: What does the source list for COc1ccc(Nc2n[nH]c3ccc(C)cc23)cc1OC?
Answer: GI50 (A549): > 25 µM; GI50 (HCT-116 [5]): 22.3 µM; GI50 (HepG2): > 25 µM

Question: Which Activity [8] does the source give for O=c1[nH]cc(F)c(=O)[nH]1 [FLUOROURACIL] here?
Answer: Its Activity is 21.8%.

Question: And the inhibition in vivo at 25 mg/kg (HCT-116 [18])?
Answer: Its inhibition in vivo at 25 mg/kg is 45.5%.

Question: Which GI50 (A549) does the source give for COc1cc(Nc2n[nH]c3ccc(C)cc23)cc(OC)c1 here?
Answer: Its GI50 is greater than 25 µM.

Question: What about the GI50 (HCT-116 [5]) of the same molecule?
Answer: Its GI50 is greater than 25 µM.

Question: And the GI50 (HepG2)?
Answer: The GI50 was greater than 25 µM.
